# Source: patent US20230114241A1, “METHODS OF TREATING EPILEPSY USING THE SAME” (Trevena, Inc., priority 2019, published 2023)
# Key:
# [1] = target: T1, human sphingosine-1-phosphate receptor 1 (S1P1) (Homo sapiens, UniProt P21453); experiment: Inhibition of cAMP production (HTRF cAMP HiRange), S1P1 CHO-K1 cells; format: cell-based; conditions: for Emax: CHO-K1, efficacy normalized to maximum efficacy of fingolimod, read-out: hS1P1 CAMP SPAN; for EC50: read-out: hS1P1 CAMP pEC50 (converted)
# Method in brief: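 Intracellular cAMP changes read by TR-FRET (HTRF HiRange, 1 h room temperature) after 30 min compound exposure at 37 °C. Cells: overnight-plated CHO-K1 stably expressing tagged human S1P1 with EA-β-arrestin2. Responses normalized to fingolimod.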
# Target sequence in this assay (P21453 whole entry): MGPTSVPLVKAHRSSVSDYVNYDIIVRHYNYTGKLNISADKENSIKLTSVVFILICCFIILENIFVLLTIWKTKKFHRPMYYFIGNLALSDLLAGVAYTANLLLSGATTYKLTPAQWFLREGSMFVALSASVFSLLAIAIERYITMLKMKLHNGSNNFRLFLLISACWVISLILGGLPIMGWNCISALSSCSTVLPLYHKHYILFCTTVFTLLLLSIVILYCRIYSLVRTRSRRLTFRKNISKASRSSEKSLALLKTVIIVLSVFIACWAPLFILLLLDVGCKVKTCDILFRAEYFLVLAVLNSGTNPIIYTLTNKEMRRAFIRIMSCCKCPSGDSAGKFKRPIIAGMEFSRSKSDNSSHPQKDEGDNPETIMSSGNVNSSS
# [2] = target: T1, human sphingosine-1-phosphate receptor 1 (S1P1); experiment: β-Arrestin2 recruitment assay (PathHunter), S1P1 CHO-K1 cells; format: cell-based; conditions: for Emax: efficacy normalized to maximum efficacy of fingolimod, read-out: hS1P1 B-arrestin2 SPAN; for EC50: β-arrestin2 recruitment, read-out: hS1P1 B-arrestin2 pEC50 (converted)
# Method in brief: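 Agonist-driven β-arrestin2 recruitment measured by β-galactosidase complementation after 60 min compound exposure at 37 °C and 1 h detection at room temperature. Cells: stable CHO-K1 line expressing tagged human S1P1 with EA-β-arrestin2, plated the night before. Data expressed relative to fingolimod.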
# Target sequence in this assay (P21453 whole entry): as above
# Target sequence in this assay (P32121 whole entry partner): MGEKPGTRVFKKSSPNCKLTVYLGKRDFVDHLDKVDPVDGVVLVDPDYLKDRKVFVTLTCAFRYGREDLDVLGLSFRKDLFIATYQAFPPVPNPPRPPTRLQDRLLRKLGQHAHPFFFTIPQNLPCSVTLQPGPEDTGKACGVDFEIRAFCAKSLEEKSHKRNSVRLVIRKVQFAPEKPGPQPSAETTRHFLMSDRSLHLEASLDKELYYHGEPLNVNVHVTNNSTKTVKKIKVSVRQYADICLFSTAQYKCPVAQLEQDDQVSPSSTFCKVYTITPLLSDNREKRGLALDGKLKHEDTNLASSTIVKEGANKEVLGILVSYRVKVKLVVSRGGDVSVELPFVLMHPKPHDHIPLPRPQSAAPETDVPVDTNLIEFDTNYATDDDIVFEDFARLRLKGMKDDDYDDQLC
# [3] = target: human sphingosine-1-phosphate receptor 2 (S1P2) (Homo sapiens, UniProt O95136); experiment: Selectivity: inositol monophosphate production (IP-one), S1P2 CHO-K1 cells; format: cell-based; conditions: for Emax: CHO-K1, efficacy normalized to maximal efficacy of CYM5520, read-out: hS1P2 IP-one SPAN; for EC50: inositol monophosphate accumulation, read-out: hS1P2 IP-one pEC50 (converted)
# human sphingosine-1-phosphate receptor 2 (S1P2), sequence (O95136 whole entry): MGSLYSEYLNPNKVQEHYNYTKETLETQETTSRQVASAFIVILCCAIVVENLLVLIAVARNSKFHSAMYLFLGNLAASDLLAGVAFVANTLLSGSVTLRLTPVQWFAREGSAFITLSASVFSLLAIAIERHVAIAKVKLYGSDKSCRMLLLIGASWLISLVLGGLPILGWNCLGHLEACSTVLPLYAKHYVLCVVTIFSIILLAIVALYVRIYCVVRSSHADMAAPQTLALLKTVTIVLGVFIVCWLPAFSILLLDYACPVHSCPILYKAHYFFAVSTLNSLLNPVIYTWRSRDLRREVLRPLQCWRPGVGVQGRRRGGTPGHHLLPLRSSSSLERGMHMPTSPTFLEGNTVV
# [4] = target: human sphingosine-1-phosphate receptor 3 (S1P3) (Homo sapiens, UniProt Q99500); experiment: Selectivity: inhibition of cAMP production (HTRF), S1P3 CHO-K1 cells; format: cell-based; conditions: for Emax: CHO-K1, efficacy normalized to maximal efficacy of fimgolimod, read-out: hS1P3 cAMP SPAN; for EC50: inhibition of cAMP production, read-out: hS1P3 cAMP pEC50 (converted)
# human sphingosine-1-phosphate receptor 3 (S1P3), sequence (Q99500 whole entry): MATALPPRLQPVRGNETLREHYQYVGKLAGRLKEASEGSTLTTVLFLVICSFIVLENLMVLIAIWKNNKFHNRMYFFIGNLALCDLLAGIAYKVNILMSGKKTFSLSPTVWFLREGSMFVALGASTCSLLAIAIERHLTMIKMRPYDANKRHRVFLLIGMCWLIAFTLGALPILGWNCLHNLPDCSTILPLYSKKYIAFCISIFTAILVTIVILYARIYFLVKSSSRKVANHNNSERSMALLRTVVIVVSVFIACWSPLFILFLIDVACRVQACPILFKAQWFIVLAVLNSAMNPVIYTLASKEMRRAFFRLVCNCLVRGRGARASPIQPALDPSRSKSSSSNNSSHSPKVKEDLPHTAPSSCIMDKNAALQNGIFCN
# [5] = target: sphingosine-1-phosphate receptor 5 (S1P5) (Homo sapiens, UniProt Q9H228); experiment: Selectivity: inhibition of cAMP production (HTRF), S1P5 CHO-K1 cells; format: cell-based; conditions: for Emax: CHO-K1, efficacy normalized to maximal efficacy of fimgolimod, read-out: hS1P5 cAMP SPAN; for EC50: inhibition of cAMP production, read-out: hS1P5 cAMP pEC50 (converted)
# sphingosine-1-phosphate receptor 5 (S1P5), sequence (Q9H228 whole entry): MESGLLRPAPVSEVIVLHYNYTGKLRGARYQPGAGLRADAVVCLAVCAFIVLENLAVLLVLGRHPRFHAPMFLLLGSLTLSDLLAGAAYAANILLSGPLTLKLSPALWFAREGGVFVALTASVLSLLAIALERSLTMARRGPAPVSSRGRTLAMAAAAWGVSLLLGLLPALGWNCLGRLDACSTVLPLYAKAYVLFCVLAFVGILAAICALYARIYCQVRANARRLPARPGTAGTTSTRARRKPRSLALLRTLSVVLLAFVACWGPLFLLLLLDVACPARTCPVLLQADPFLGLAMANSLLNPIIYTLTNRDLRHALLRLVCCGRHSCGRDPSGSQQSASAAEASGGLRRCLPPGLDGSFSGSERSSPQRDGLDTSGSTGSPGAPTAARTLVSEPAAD
# Method: Cell Culturing and Assay Plating Cell lines were cultured in AssayComplete™ Media 6 (DiscoverX Corporation, Cat #: 920018GF2) at 37° C. and 5% CO2 in a humidified CO2 and temperature-controlled incubator. To begin assay plating, cells were washed with Dulbecco's phosphate buffered saline (CellGro, Cat #: 21-031-CV) and lifted from the culturing flask by incubation (37° C., 5 min) with CellStripper (Cellgro, Cat #: 25-056-CI). […] Plated cells were incubated overnight at 37° C. and 5% CO2 in a humidified CO2 and temperature-controlled incubator. Detecting Inhibition of cAMP Production
# S1P3 and S1P5 Agonist-promoted G-protein responses were determined by measuring changes in intracellular cAMP using the HTRF® cAMP HiRange kit (CisBio, Cat #: 62AM6PEJ) based on time-resolved fluorescence resonance energy transfer (TR-FRET) technology. […] Following a 30-minute room temperature incubation the components of the cAMP HiRange kit were added as per the manufacturer's instructions. After an hour incubation at room temperature, plates were analyzed by a BMG PheraStar microplate reader.
# These values are normalized to fimgolimod, a known agonist of the sphingosine-1-phosphate 3 and 5 receptor or CYM5520, a known agonist of the sphingosine-1-phosphate 2 receptor. The tables also include potency values (pEC50) for modulating discrete receptor-mediated activities (inhibition of cAMP production or inositol monophosphate accumulation).
# [6] = target: hERG channel (Homo sapiens, UniProt Q12809); experiment: cell-based
# hERG channel, sequence (Q12809 whole entry): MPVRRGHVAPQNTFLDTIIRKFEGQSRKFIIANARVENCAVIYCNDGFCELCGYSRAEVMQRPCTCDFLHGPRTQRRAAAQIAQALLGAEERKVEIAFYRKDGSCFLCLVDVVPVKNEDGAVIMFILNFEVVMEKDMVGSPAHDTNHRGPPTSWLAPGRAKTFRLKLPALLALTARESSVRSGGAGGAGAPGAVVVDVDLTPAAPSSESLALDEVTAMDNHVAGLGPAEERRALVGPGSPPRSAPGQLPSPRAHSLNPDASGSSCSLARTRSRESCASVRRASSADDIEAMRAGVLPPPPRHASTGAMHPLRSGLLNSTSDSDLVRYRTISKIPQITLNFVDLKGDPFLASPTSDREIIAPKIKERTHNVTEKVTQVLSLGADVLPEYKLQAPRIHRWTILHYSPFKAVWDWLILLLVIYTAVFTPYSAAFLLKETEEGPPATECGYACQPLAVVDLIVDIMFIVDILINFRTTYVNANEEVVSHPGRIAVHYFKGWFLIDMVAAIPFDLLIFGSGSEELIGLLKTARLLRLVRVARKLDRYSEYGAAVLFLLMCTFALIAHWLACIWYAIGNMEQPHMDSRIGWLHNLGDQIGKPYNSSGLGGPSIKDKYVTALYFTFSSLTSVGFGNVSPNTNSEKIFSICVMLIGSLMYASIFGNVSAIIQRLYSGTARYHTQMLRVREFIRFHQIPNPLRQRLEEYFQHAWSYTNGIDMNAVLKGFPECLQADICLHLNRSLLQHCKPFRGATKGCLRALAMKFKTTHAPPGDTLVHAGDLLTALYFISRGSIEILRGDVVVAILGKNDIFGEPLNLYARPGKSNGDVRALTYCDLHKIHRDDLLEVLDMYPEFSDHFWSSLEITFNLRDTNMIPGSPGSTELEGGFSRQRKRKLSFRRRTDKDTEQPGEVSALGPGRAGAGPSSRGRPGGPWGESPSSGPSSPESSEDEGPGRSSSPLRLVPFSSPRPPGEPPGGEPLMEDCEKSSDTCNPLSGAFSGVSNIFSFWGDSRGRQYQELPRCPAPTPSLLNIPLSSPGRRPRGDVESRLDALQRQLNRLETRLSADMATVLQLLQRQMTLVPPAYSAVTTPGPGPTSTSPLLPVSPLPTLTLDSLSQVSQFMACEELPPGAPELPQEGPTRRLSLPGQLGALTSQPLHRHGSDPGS
# [7] = tested on: peripheral blood lymphocytes; experiment: Lymphopenia: peripheral blood lymphocyte counts, acute and chronic s.c. dosing; format: in vivo; conditions: c57bl/6 mice
# Method: Compounds were tested for changes in peripheral blood lymphocytes in C57bl/6 mice. In acute studies, animals (n=5/group) were dosed subcutaneously with test compound at a dose of 3 mg/kg. Animals were sacrificed at specific time points and […] of whole blood was collected in EDTA (K2) Eppendorf tubes. Blood was stored on ice and shipped immediately overnight delivery to Charles River Laboratories for analysis. CRL ran samples through their WBC/differential panel on an Advia 120 instrument. We received peripheral lymphocyte counts (10^3 cells/μl) for each blood sample. Treatment group means were compared to a vehicle treatment group for statistical significance. In chronic studies, animals (n=6-8/group) were dosed subcutaneously for three to seven days with test compound at doses that were at least 5-fold higher than the efficacious dose in pharmacology/behavioral assays. On the last day, animals were sacrificed 45 minutes to 6 hrs after the final dose. Whole blood was collected and analyzed as described for acute studies. […]
# [8] = tested on: Corneal Kindled Seizure Model; experiment: Corneal Kindled Seizure Model (CKM), mouse; format: in vivo; set-up: key to Average Seizure Scores: seizure stage score; Stage 5 = rearing and falling, generalized clonic seizure
# Method: Compounds are tested for efficacy in Corneal Kindled Seizure Model (CKM) Mouse. The pharmacological profile of the corneal kindled mouse is consistent with human partial epilepsy and effectively identifies the anticonvulsant potential of useful compounds for this condition, such as levetiracetam. Male C57BL/6 mice are kindled electrically with 3 sec stimulation, 3 mA, 60 Hz, and corneal electrodes to a criterion of 5 consecutive Stage 5 seizures (facial clonus and head nodding progressing to forelimb clonus, and finally rearing and falling accompanied by a generalized clonic seizure). After receiving twice daily corneal stimulations, mice typically reach the first Stage 5 seizure between approximately 10-14 days. […] Fully kindled mice are then stimulated every-other day until all other mice within the group reach the criterion of 5 consecutive Stage 5 seizures. Any mouse not achieving the fully kindled state is not included in any evaluation of investigational compounds. Testing of investigational compounds commences at least 5-7 days after the last stimulation. Mice are stimulated on the day prior to any drug evaluation to ensure that all mice to be used in the drug study will present with a Stage 5 seizure. […] After testing, the corneal kindled animals are returned to their home cage. Unlike the acute seizure tests conducted by the ETSP, each corneal kindled mouse is allowed at least 3-4 days between tests to “washout” any investigational compound after testing. Compound 469 was tested in the method described in Example 5. The data for Compound 469 is illustrated in Tables 1-4.
# [9] = inhibition of cAMP production, potency
# [10] = CHO-K1, β-arrestin2 recruitment
# [11] = inhibition of cAMP production, S1P1
# [12] = 3 mg/kg s.c., 0.5 hour, Experiment 1
# [13] = 3 mg/kg s.c., 1 hour, Experiment 1
# [14] = 5 mg/kg s.c., 0.5 hour, Experiment 1
# [15] = 5 mg/kg s.c., 1 hour, Experiment 1
compound,measurement,setting,value
"COc1ccc(-c2noc(-c3ccc4c(c3)nnn4CC(C)(C)O)n2)c(C)c1 [Compound 26, 1-{5-[3-(4-methoxy-2-methylphenyl)-1,2,4-oxadiazol-5-yl]-1H-1,2,3-benzo-triazol-1-yl}-2-methylpropan-2-ol]",Emax,[1]; inhibition of cAMP production,> 75%
same,EC50,[1]; [9],< 0.316 µM
same,Emax,[2]; [10],> 75%
same,EC50,[2]; potency,< 10 µM
same,Emax,[3],< 50%
same,EC50,[3],> 10 µM
same,Emax,[4],< 50%
same,EC50,[4],> 10 µM
same,Emax,[5],< 50%
same,EC50,[5],> 10 µM
same,IC50,[6],> 10 µM
"CC(C)n1nnc2cc(-c3nc(-c4cccc5c4OCO5)no3)ccc21 [Compound 32, 3-(benzo[d][1,3]dioxol-4-yl)-5-(1-isopropyl-1H-benzo[d][1,2,3]triazol-5-yl)-1,2,4-oxadiazole]",Emax,[1]; inhibition of cAMP production,> 75%
same,EC50,[1]; [9],< 0.316 µM
same,Emax,[2]; [10],< 75%
same,EC50,[2]; potency,< 10 µM
same,Emax,[3],< 50%
same,EC50,[3],> 10 µM
same,Emax,[4],< 50%
same,EC50,[4],> 10 µM
same,Emax,[5],< 50%
same,EC50,[5],> 10 µM
same,Lymphopenia effect (peripheral blood lymphocytes),"[7]; 6 mg/kg sc, 7 days","no change: 6 mg/kg, 7 days"
"Cc1ccccc1-c1nc(-c2ccc3c(c2)nnn3C(C)C)no1 [Compound 99, 3-(1-isopropyl-1H-benzo[d][1,2,3]triazol-5-yl)-5-(o-tolyl)-1,2,4-oxadiazole]",Emax,[1]; inhibition of cAMP production,> 75%
same,EC50,[1]; [9],< 0.316 µM
same,Emax,[2]; [10],> 75%
same,EC50,[2]; potency,< 10 µM
same,Emax,[3],< 50%
same,EC50,[3],> 10 µM
same,Emax,[4],< 50%
same,EC50,[4],> 10 µM
same,Emax,[5],> 50%
same,EC50,[5],> 10 µM
same,Lymphopenia effect (peripheral blood lymphocytes),"[7]; 6 mg/kg sc, 7 days","no change: 6 mg/kg, 7 days"
"COc1ccccc1-c1nc(-c2ccc3c(c2)nnn3C(C)C)no1 [Compound 287, 3-(1-isopropyl-1H-benzo[d][1,2,3]triazol-5-yl)-5-(2-methoxy-phenyl)-1,2,4-oxadiazole]",Emax,[1]; inhibition of cAMP production,> 75%
same,EC50,[1]; [9],< 0.316 µM
same,Emax,[2]; [10],> 75%
same,EC50,[2]; potency,< 10 µM
same,Emax,[3],< 50%
same,EC50,[3],> 10 µM
same,Emax,[4],< 50%
same,EC50,[4],> 10 µM
same,Emax,[5],< 50%
same,EC50,[5],> 10 µM
same,Lymphopenia effect (peripheral blood lymphocytes),"[7]; 6 mg/kg sc, 7 days","no change: 6 mg/kg, 7 days"
"CC(C)n1nnc2cc(-c3nc(-c4cccc5c4OCCC5)no3)ccc21 [Compound 304, 3-chroman-8-yl-5-(1-isopropylbenzotriazol-5-yl)-1,2,4-oxadiazole]",Emax,[1]; inhibition of cAMP production,< 75%
same,EC50,[1]; [9],< 0.316 µM
same,Emax,[2]; [10],> 75%
same,EC50,[2]; potency,< 10 µM
same,Emax,[3],< 50%
same,EC50,[3],> 10 µM
same,Emax,[4],< 50%
same,EC50,[4],< 10 µM
same,Emax,[5],< 50%
same,EC50,[5],> 10 µM
same,Lymphopenia effect (peripheral blood lymphocytes),"[7]; 6 mg/kg sc, 7 days","no change: 6 mg/kg, 7 days"
same,IC50,[6],> 10 µM
"CCC1(CC)CC(=O)c2cc(-c3nc(-c4cn[nH]c4)no3)ccc2O1 [Compound 469, 6-(3-(1H-pyrazol-4-yl)-1,2,4-oxadiazol-5-yl)-2,2-diethyl-chroman-4-one]",EC50,[1]; [11],< 0.316 µM
same,Average Seizure Scores,"[8]; 1 mg/kg, 2 hrs, Experiment 2",3.25
same,N/F (number of animals protected / total number tested),"[8]; 1 mg/kg, 2 hrs, Experiment 2",1/8
same,Average Seizure Scores,"[8]; 2.5 mg/kg, 2 hrs, Experiment 2",3.38
same,N/F (number of animals protected / total number tested),"[8]; 2.5 mg/kg, 2 hrs, Experiment 2",2/8
same,Average Seizure Scores,[8]; [12],4.5
same,N/F (number of animals protected / total number tested),[8]; [12],0/8
same,Average Seizure Scores,[8]; [13],3.38
same,N/F (number of animals protected / total number tested),[8]; [13],1/8
same,Average Seizure Scores,[8]; [14],4
same,N/F (number of animals protected / total number tested),[8]; [14],0/8
same,Average Seizure Scores,[8]; [15],3.38
same,N/F (number of animals protected / total number tested),[8]; [15],1/8
same,Average Seizure Scores,"[8]; 5 mg/kg, 2 hrs, Experiment 2",2.5
same,N/F (number of animals protected / total number tested),"[8]; 5 mg/kg, 2 hrs, Experiment 2",3/8
same,Average Seizure Scores,"[8]; 10 mg/kg, 1 hour",2.38
same,N/F (number of animals protected / total number tested),"[8]; 10 mg/kg, 1 hour",2/8
same,Average Seizure Scores,"[8]; 10 mg/kg, 2 hrs",0.63
same,N/F (number of animals protected / total number tested),"[8]; 10 mg/kg, 2 hrs",7/8
same,effect on seizures,"[8]; Corneal Kindled Seizure Model, mouse",can reduce seizures
same,ED50,"[8]; Corneal Kindled Seizure Model, mouse, 2 hrs time point",6.2 mg/kg
same,Lymphopenia effect (peripheral blood lymphocytes),"[7]; 3.7 mg/kg sc, 3 days","no change: 3.7 mg/kg, 3 days"
"N#Cc1cc(-c2nc(-c3ccc4c(c3)NC(=O)C4)no2)ccc1NCC1CC1 [Compound 497, 2-((cyclopropyl-methyl)amino)-5-(3-(2-oxoindolin-6-yl)-1,2,4-oxadiazol-5-yl)benzonitrile]",Emax,[1],> 75%
same,EC50,[1]; [11],< 0.316 µM
same,Emax,[2]; CHO-K1,> 75%
same,EC50,[2]; S1P1,< 10 µM
same,IC50,[6],> 10 µM
"CC(C)Nc1ccc(-c2nc(-c3ccc4nonc4c3)no2)cc1C#N [Compound 730, 5-[3-(2,1,3-benzoxa-diazol-5-yl)-1,2,4-oxadiazol-5-yl]-2-[(propan-2-yl)amino]benzonitrile]",Lymphopenia effect (peripheral blood lymphocytes),"[7]; 6 mg/kg sc, 7 days","no change: 6 mg/kg, 7 days"
same,IC50,[6],> 10 µM
"CC(C)Oc1ccc(-c2ncc(-c3cccnc3)cn2)cc1C#N [Compound 738, 2-isopropoxy-5-(5-(pyridin-3-yl)pyrimidin-2-yl)benzonitrile]",IC50,[6],> 10 µM
"CC(C)Oc1ccc(-c2ncc(-c3ccccn3)cn2)cc1C#N [Compound 742, 2-isopropoxy-5-(5-(pyridin-2-yl)pyrimidin-2-yl)benzonitrile]",IC50,[6],> 10 µM
"CC(C)Nc1ccc(-c2ncc(-c3ccnc(O)c3)cn2)cc1C#N [Compound 743, 5-(5-(2-hydroxy-pyridin-4-yl)pyrimidin-2-yl)-2-(isopropyl-amino)benzonitrile]",IC50,[6],> 10 µM
"CC(C)Oc1ccc(-c2ncc(-c3ccnc(O)c3)cn2)cc1C#N [Compound 744, 5-(5-(2-hydroxy-pyridin-4-yl)pyrimidin-2-yl)-2-isopropoxy-benzonitrile]",IC50,[6],> 10 µM
